Test results as given in article PMC10377643, “Exploration of Bis-Cinnamido-Polyamines as Intrinsic Antimicrobial Agents and Antibiotic Enhancers” (Biomolecules, 2023).

What was measured:
S. aureus ATCC 25923 = assay: Antimicrobial MIC, S. aureus; format: cell-based; conditions: Staphylococcus aureus, ATCC25923, mean (n = 3)
Experimental: (§1) The susceptibility of bacterial strains S. aureus (ATCC 25923), E. coli (ATCC 25922) and P. aeruginosa (ATCC 27853) to antibiotics and compounds was determined using protocols reported previously. Additional antimicrobial evaluation against MRSA (ATCC 43300), Klebsiella pneumoniae (ATCC 700603), Acinetobacter baumannii (ATCC 19606), Candida albicans (ATCC 90028) and Cryptococcus neoformans (ATCC 208821) was undertaken at the Community for Open Antimicrobial Drug Discovery at The University of Queensland (Australia) according to their standard protocols reported previously.

MRSA ATCC 43300 = assay: Antimicrobial MIC, MRSA (CO-ADD); format: cell-based, methicillin-resistant S. aureus; conditions: Staphylococcus aureus; MRSA ATCC 43300; mean (n = 2); read-out: MIC MRSA
Experimental: as §1

P. aeruginosa ATCC 27853 [1] = assay: Antimicrobial MIC, P. aeruginosa; format: cell-based; conditions: Pseudomonas aeruginosa, ATCC27853, mean (n = 3)
Experimental: as §1

E. coli ATCC 25922 [2] = assay: Antimicrobial MIC, E. coli; format: cell-based, Escherichia coli; conditions: Escherichia coli, ATCC25922, E. coli ATCC 25922; mean (n = 3)
Experimental: as §1

C. albicans ATCC 90028 = assay: Antifungal MIC, C. albicans (CO-ADD); format: cell-based; conditions: Candida albicans, ATCC90028, mean (n = 2)
Experimental: as §1

[3] = system: C. neoformans ATCC 208821; assay: Antifungal MIC, C. neoformans (CO-ADD); format: cell-based; conditions: Cryptococcus neoformans, ATCC208821, mean (n = 2)
Experimental: as §1

Cytotoxicity assay = format: cell-based, human; conditions: human, HEK293 human embryonic kidney cells, mean (n = 2), read-out: Cytotoxicity (IC50), concentration of compound at 50% cytotoxicity
Experimental: (§2) Cytotoxicity assays were conducted using the protocols previously reported.

[4] = system: HEK293 human embryonic kidney cells; assay: Cytotoxicity assay; format: cell-based; conditions: mean (n = 2)
Experimental: as §2

human red blood cells = assay: Hemolytic assay; format: cell-based; conditions: mean (n = 2)
Experimental: Hemolysis assays were conducted using the protocols previously reported.

P. aeruginosa ATCC 27853 [5] = assay: Doxycycline enhancement against P. aeruginosa; format: cell-based, Pseudomonas aeruginosa; conditions: doxycycline fixed at 4.5 µM
Experimental: (§3) Antibiotic enhancer concentrations were determined using previously reported protocols.
We then evaluated the set of analogues for the ability to enhance the antibiotic activity of doxycycline against P. aeruginosa ATCC 27853 and of erythromycin against E. coli ATCC 25922 (Table 2). In the case of doxycycline, a fixed concentration of the antibiotic of 4.5 μM, which is twenty-fold lower than the intrinsic MIC 90 μM against this organism, was used. Each of the test compounds was then evaluated at a range of concentrations varying from 3.125 to 50–100 μM, with the upper concentration dependent upon the compounds intrinsic MIC towards P. aeruginosa (Table 1). […] While the observation of cytotoxicity/hemolytic properties of 16a–c, 14f and 13f reduces our interest in these analogues, analogues 13b and 13d were identified as non-toxic and strong enhancers of the action of doxycycline towards P. aeruginosa.

E. coli ATCC 25922 [6] = assay: Erythromycin enhancement against E. coli; format: cell-based, Escherichia coli; conditions: erythromycin fixed at 10.9 µM (8 µg/mL)
Experimental: as §3

P. aeruginosa PAO1 [7] = assay: Antibiotic potentiation by 13b, P. aeruginosa PAO1; format: cell-based, Pseudomonas aeruginosa
Experimental: as §3
(§4) The antibiotic-enhancing activities of 13b, the strongest non-toxic doxycycline enhancer, were further evaluated with an expanded set of antibiotics (minocycline, chloramphenicol, vancomycin, nalidixic acid and erythromycin) against three drug-resistant strains of Gram-negative bacteria (P. aeruginosa, K. pneumoniae and A. baumannii) (Table 3). […] However, 13b was able to strongly potentiate the activity of minocycline against P. aeruginosa, K. pneumoniae and A. baumannii (>41-fold, >82-fold and >82-fold, respectively) while also enhancing the activity of doxycycline against P. aeruginosa (>40-fold). The enhancing activity of doxycycline against A. baumannii and K. pneumoniae was not investigated due to its sensitivity to these strains.

K. pneumoniae ATCC 13883 [8] = assay: Antibiotic potentiation by 13b, K. pneumoniae; format: cell-based, Klebsiella pneumoniae
Experimental: as §3, §4

A. baumannii AYE [9] = assay: Antibiotic potentiation by 13b, A. baumannii; format: cell-based, Acinetobacter baumannii
Experimental: as §3, §4

P. aeruginosa PAO1 [10] = assay: Intrinsic MIC, P. aeruginosa PAO1; format: cell-based; conditions: Pseudomonas aeruginosa; P. aeruginosa PAO1; substance alone (no antibiotic / no enhancer); read-out: MIC alone, P. a
Experimental: as §3

K. pneumoniae ATCC 13883 [11] = assay: Intrinsic MIC, K. pneumoniae ATCC 13883; format: cell-based; conditions: Klebsiella pneumoniae, ATCC13883; K. pneumoniae ATCC 13883; substance alone; read-out: MIC alone, K. p
Experimental: as §3

A. baumannii AYE [12] = assay: Intrinsic MIC, A. baumannii AYE; format: cell-based; conditions: Acinetobacter baumannii; A. baumannii AYE; substance alone; read-out: MIC alone, A. b
Experimental: as §3

[13] = system: antimicrobial activity (microbes not named); design: method as in PMID 36982955; conditions: cited from earlier work
P. aeruginosa = system: P. aeruginosa; design: method as in PMID 36982955; conditions: cited from earlier work

## O=C(C=Cc1ccccc1)NCCCNCCCCCCNCCCNC(=O)C=Cc1ccccc1.O=C(O)C(F)(F)F.O=C(O)C(F)(F)F [Compound 13b, N^1,N^6-Bis(3-cinnamamidopropyl)hexane-1,6-diaminium 2,2,2-trifluoroacetate]
S. aureus ATCC 25923
  MIC: > 200 µM
MRSA ATCC 43300
  MIC: > 44.5 µM
P. aeruginosa ATCC 27853 [1]
  MIC: > 200 µM
E. coli ATCC 25922 [2]
  MIC: 100 µM
C. albicans ATCC 90028
  MIC: > 44.5 µM
[3]
  MIC: 44.5 µM
Cytotoxicity assay
  IC50: > 44.5 µM
[4]
  Cytotoxicity (IC50), concentration of compound at 50% cytotoxicity: non-toxic
Human red blood cells
  Hemolysis (HC10), concentration of compound at 10% hemolytic activity: >44.5 µM
P. aeruginosa ATCC 27853 [5]
  Dox/P. a: concentration required to restore doxycycline activity: 3.125 µM
E. coli ATCC 25922 [6]
  Eryth/E. c: concentration required to restore erythromycin activity: 25 µM
  Eryth/E. c: fold change (intrinsic MIC of test compound / combination MIC): 4 fold
P. aeruginosa PAO1 [7]; chloramphenicol 2 µg/mL
  Fold change, chloramphenicol: > 7 fold
P. aeruginosa PAO1 [7]; chloramphenicol 2 µg/mL, n = 2
  Concentration for potentiation of chloramphenicol: 38.7 µM
P. aeruginosa PAO1 [7]; doxycycline 2 µg/mL
  Fold change, doxycycline: > 40 fold
P. aeruginosa PAO1 [7]; doxycycline 2 µg/mL, n = 2
  Concentration for potentiation of doxycycline: 7.03 µM
P. aeruginosa PAO1 [7]; erythromycin 2 µg/mL
  Fold change, erythromycin: > 2 fold
P. aeruginosa PAO1 [7]; erythromycin 2 µg/mL, n = 2
  Concentration for potentiation of erythromycin: 136 µM
P. aeruginosa PAO1 [7]; minocycline 2 µg/mL
  Fold change, minocycline: > 41 fold
P. aeruginosa PAO1 [7]; minocycline 2 µg/mL, n = 2
  Concentration for potentiation of minocycline: 6.83 µM
K. pneumoniae ATCC 13883 [8]; chloramphenicol 2 µg/mL, n = 2
  Concentration for potentiation of chloramphenicol: >200 µM
K. pneumoniae ATCC 13883 [8]; erythromycin 2 µg/mL, n = 2
  Concentration for potentiation of erythromycin: >200 µM
K. pneumoniae ATCC 13883 [8]; minocycline 2 µg/mL
  Fold change, minocycline: > 82 fold
K. pneumoniae ATCC 13883 [8]; minocycline 2 µg/mL, n = 2
  Concentration for potentiation of minocycline: 3.41 µM
K. pneumoniae ATCC 13883 [8]; nalidixic acid 2 µg/mL, n = 2
  Concentration for potentiation of nalidixic acid: >200 µM
K. pneumoniae ATCC 13883 [8]; vancomycin 2 µg/mL
  Fold change, vancomycin: > 2 fold
K. pneumoniae ATCC 13883 [8]; vancomycin 2 µg/mL, n = 2
  Concentration for potentiation of vancomycin: 138 µM
A. baumannii AYE [9]; chloramphenicol 2 µg/mL
  Fold change, chloramphenicol: > 4 fold
A. baumannii AYE [9]; chloramphenicol 2 µg/mL, n = 2
  Concentration for potentiation of chloramphenicol: 77.4 µM
A. baumannii AYE [9]; erythromycin 2 µg/mL
  Fold change, erythromycin: > 2 fold
A. baumannii AYE [9]; erythromycin 2 µg/mL, n = 2
  Concentration for potentiation of erythromycin: 136 µM
A. baumannii AYE [9]; minocycline 2 µg/mL
  Fold change, minocycline: > 82 fold
A. baumannii AYE [9]; minocycline 2 µg/mL, n = 2
  Concentration for potentiation of minocycline: 3.41 µM
A. baumannii AYE [9]; nalidixic acid 2 µg/mL, n = 2
  Concentration for potentiation of nalidixic acid: >200 µM
A. baumannii AYE [9]; vancomycin 2 µg/mL
  Fold change, vancomycin: > 2 fold
A. baumannii AYE [9]; vancomycin 2 µg/mL, n = 2
  Concentration for potentiation of vancomycin: 138 µM
P. aeruginosa PAO1 [10]
  MIC: > 278 µM
K. pneumoniae ATCC 13883 [11]
  MIC: > 278 µM
A. baumannii AYE [12]
  MIC: > 278 µM

## O=C(CCc1ccccc1)NCCCNCCCCCCNCCCNC(=O)CCc1ccccc1 [Compound 17]
[13]
  Antimicrobial activity: devoid of antimicrobial activity
P. aeruginosa
  Ability to enhance the action of doxycycline towards P. aeruginosa: devoid

## COc1ccc(/C=C/C(=O)NCCCNCCCCCCCCNCCCNC(=O)/C=C/c2ccc(OC)cc2)cc1.O=C(O)C(F)(F)F.O=C(O)C(F)(F)F [Compound 14d, N^1,N^8-Bis(3-((E)-3-(4-methoxyphenyl)acrylamido)propyl)octane-1,8-diaminium 2,2,2-trifluoroacetate]
S. aureus ATCC 25923
  MIC: 7.75 µM
MRSA ATCC 43300
  MIC: ≤ 0.31 µM
P. aeruginosa ATCC 27853 [1]
  MIC: 248 µM
E. coli ATCC 25922 [2]
  MIC: 62 µM
C. albicans ATCC 90028
  MIC: > 39.7 µM
Cytotoxicity assay
  IC50: > 39.7 µM
[4]
  Cytotoxicity (IC50), concentration of compound at 50% cytotoxicity: does not exhibit cytotoxicity/hemolysis
P. aeruginosa ATCC 27853 [5]
  Dox/P. a: concentration required to restore doxycycline activity: 15.5 µM
  Dox/P. a: fold change (intrinsic MIC of test compound / combination MIC): 16 fold
E. coli ATCC 25922 [6]
  Eryth/E. c: concentration required to restore erythromycin activity: 62 µM
  Eryth/E. c: fold change (intrinsic MIC of test compound / combination MIC): 1 fold

## CCn1cc(C(=O)O)c(=O)c2ccc(C)nc21 [nalidixic acid]
P. aeruginosa PAO1 [10]
  MIC: > 200 µM
K. pneumoniae ATCC 13883 [11]
  MIC: > 200 µM
A. baumannii AYE [12]
  MIC: > 200 µM

## O=C(C=Cc1ccccc1)NCCCNCCCCCCCCCCCCNCCCNC(=O)C=Cc1ccccc1.O=C(O)C(F)(F)F.O=C(O)C(F)(F)F [Compound 13f, N^1,N^12-Bis(3-cinnamamidopropyl)dodecane-1,12-diaminium 2,2,2-trifluoroacetate]
S. aureus ATCC 25923
  MIC: 3.12 µM
MRSA ATCC 43300
  MIC: ≤ 0.31 µM
P. aeruginosa ATCC 27853 [1]
  MIC: 50 µM
E. coli ATCC 25922 [2]
  MIC: 1.56 µM
C. albicans ATCC 90028
  MIC: > 39.9 µM
[3]
  MIC: ≤ 0.31 µM
Cytotoxicity assay
  IC50: 19.9 µM
Human red blood cells
  Hemolysis (HC10), concentration of compound at 10% hemolytic activity: >39.9 µM
P. aeruginosa ATCC 27853 [5]
  Dox/P. a: concentration required to restore doxycycline activity: 6.25 µM
  Dox/P. a: fold change (intrinsic MIC of test compound / combination MIC): 8 fold
E. coli ATCC 25922 [6]
  Eryth/E. c: concentration required to restore erythromycin activity: 3.125 µM
  Eryth/E. c: fold change (intrinsic MIC of test compound / combination MIC): 0.5 fold

## CC[C@H]1OC(=O)[C@H](C)[C@@H](O[C@H]2C[C@@](C)(OC)[C@@H](O)[C@H](C)O2)[C@H](C)[C@@H](O[C@@H]2O[C@H](C)C[C@H](N(C)C)[C@H]2O)[C@](C)(O)C[C@@H](C)C(=O)[C@H](C)[C@@H](O)[C@]1(C)O [erythromycin]
P. aeruginosa PAO1 [10]
  MIC: > 200 µM
K. pneumoniae ATCC 13883 [11]
  MIC: > 200 µM
A. baumannii AYE [12]
  MIC: > 200 µM
